In patent publication US20210214359A1, “Compounds and Methods for Treating Bacterial Infections” (NEW YORK UNIVERSITY, priority 2018, published 2021):

Assays:
S. aureus RN4220 = test: growth inhibition assay in liquid culture, potentiation of gentamicin (Gm); assay type: cell-based; details: compound at 0.375 μg/mL
Excerpt: The compounds of the invention were screened in a growth inhibition assay in liquid culture of nonpathogenic S. aureus RN4220 to directly test whether a hit compound can potentiate the action of gentamicin (Gm) added at ≤10% the minimal inhibitory concentration (MIC). Gentamicin is a ribosome-targeting bactericidal antibiotic induces oxidative stress and is effective against MRSA strains. Although gentamicin is not a first-line antibiotic for monotherapy of staphylococcal infection, it is used in combination with vancomycin or β-lactams to treat serious infections, such as endocarditis.
The MIC results for the remaining compounds of the disclosure are provided in Table 2. % MIC activity of 51-100 is labeled “+”, % MIC activity of 21-50 is labeled “++”, and % MIC activity of ≤20 is labeled “+++”.

HeLa cells = test: cytotoxicity in HeLa cells using a different assay; assay type: cell-based
human BJ cell line = test: IncuCyte Cytotoxicity Assay; assay type: cell-based
Experimental: To determine toxicity of the compounds of the disclosure, an IncuCyte™ Cytotoxicity Assay (Essen BioScience) in the human BJ cell line was conducted. Cell cultures were supplemented with a chemical probe which entered the cell and labeled nuclei green fluorescence as cells die and membrane integrity is lost. Nuclei of live cells were labeled with red fluorescence. […] This cytotoxic concentration was over 50-fold higher than the optimal concentration of the compound of Ex. 80 for bacterial growth inhibition in liquid culture in combination with 10% MIC of gentamicin. Therefore, the compounds of the disclosure show low cytotoxicity in human cell lines and present desirable targets for the development of compositions for treating bacterial infections.

[1] = tested on: methicillin-resistant USA300 strain; test: growth inhibition test in combination with methicillin; assay type: cell-based, S. aureus; details: for bacterial growth, agent alone: single agent
Experimental: (§1) FIG. 3 illustrates inhibition of culture growth of drug-resistant S. aureus by (A) the compound of Ex. 80 (GO-0001197; labeled as #9077) (30 μM) and 50% MIC of methicillin (Met) in methicillin-resistant USA300 strain; or by (B) the compound of Ex. 80 (30 μM) and 50% MIC of vancomycin (Van) in vancomycin-resistant RN10659 strain.
(§2) Because H2S inhibitors dramatically reduce the effective dose of antibiotics, they may potentiate or augment the activity of antibiotics in the strains that acquired resistance to these antibiotics. The compound of Ex. 80 (GO-0001197) was evaluated with two clinically relevant antibiotics, methicillin and vancomycin, which have different mechanisms of resistance.

S. aureus CSE [2] = biological target: T1, S. aureus CSE (Staphylococcus aureus, UniProt A0A0H3K724); test: H2S produced by purified CSE in vitro; assay type: biochemical; details: read-out: IC50, reduction of enzymatic activity (H2S produced by purified CSE)
T1 sequence (A0A0H3K724 entry or part of it): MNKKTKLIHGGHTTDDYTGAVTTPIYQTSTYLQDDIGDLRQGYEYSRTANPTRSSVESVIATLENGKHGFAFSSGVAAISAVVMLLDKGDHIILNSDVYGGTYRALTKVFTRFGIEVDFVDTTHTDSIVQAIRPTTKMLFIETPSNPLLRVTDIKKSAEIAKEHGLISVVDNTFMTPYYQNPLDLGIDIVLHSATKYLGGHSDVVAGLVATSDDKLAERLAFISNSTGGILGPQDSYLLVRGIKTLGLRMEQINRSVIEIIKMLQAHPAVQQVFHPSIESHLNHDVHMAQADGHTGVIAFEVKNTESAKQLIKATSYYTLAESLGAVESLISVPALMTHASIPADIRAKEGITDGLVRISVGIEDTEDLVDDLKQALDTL
Experimental: (§3) The amount of H2S produced by purified CSE was measured in the presence of the compound of Ex. 80 and found strong reduction of enzymatic activity with IC50 about 100 nM (FIG. 2B). This IC50 values are 10- to 400-fold lower than those determined for conventional CSE inhibitors and correlates well with its binding affinity, KD, as determined by MicroScale Thermophoresis (MST) (FIG. 2C).

[3] = tested on: vancomycin-resistant RN10659 strain; test: growth inhibition test in combination with vancomycin; assay type: cell-based, S. aureus; details: for bacterial growth, agent alone: single agent
Experimental: as §1, §2

S. aureus CSE [4] = biological target: T1, S. aureus CSE; test: binding to CSE by MicroScale Thermophoresis (MST)
Experimental: as §3

With O=C(O)c1cc(Cn2ccc3ccc(-c4cc5cccc(Cl)c5s4)cc32)[nH]n1 [Example 68, 5-{[6-(7-chloro-1-benzothiophen-2-yl)-1H-indol-1-yl]methyl}-1H-pyrazole-3-carboxylic acid] the “% MIC at 0.375 μg/mL” value (S. aureus RN4220) was 10 (% MIC at 0.375 μg/mL).

In the case of O=C(O)CNC(=O)Cn1ccc2ccc(Br)cc21 [Example 80, (2-(6-bromo-1H-indol-1-yl)acetyl)glycine], the cytotoxic concentration (HeLa cells) is reported as roughly 400 µM, the “concentration at which more than a half of the cells died” value (human BJ cell line; human) is reported as 1,250 μM and the “concentration at which practically all cells died” value (human BJ cell line; human) is reported as 2,500 μM. The “concentration at which the compound becomes toxic to cells (conservative estimation)” value (human BJ cell line; human) was roughly 500 µM, the “concentration at which the number of dead cells started to increase” value (human BJ cell line; human) was 625 µM and the “cytotoxic concentration fold higher than optimal concentration for bacterial growth inhibition” value (human BJ cell line; versus liquid culture with 10% MIC of gentamicin) was “over 50 fold”. The “bacterial growth in co-treatment with methicillin” value ([1]; Ex. 80 10 μg/mL + methicillin 5 μg/mL) was “inhibition of bacterial growth”, the “bacterial growth, agent alone” value [1] was “did not affect bacterial growth” and the IC50 (S. aureus CSE [2]) was roughly 0.1 µM. For the same compound, the “bacterial growth in co-treatment with vancomycin” value ([3]; Ex. 80 10 μg/mL + vancomycin 2 μg/mL) was “inhibition of bacterial growth” and the “bacterial growth, agent alone” value [3] was “did not affect bacterial growth”.

C#CCC(N)C(=O)O (stereo not shown) [PAG, propargylglycine] was tested, and the Kd (S. aureus CSE [4]) was roughly 90 µM and the “fold higher KD than Ex. 80” value (S. aureus CSE [4]; MST, CSE) was 225 fold.

In the case of COc1cccc(OC)c1C(=O)N[C@@H]1C(=O)N2[C@@H]1SC(C)(C)[C@@H]2C(=O)O [methicillin, reference compound], the “bacterial growth, agent alone” value [1] is reported as “only slowed down growth”.

CN[C@H](CC(C)C)C(=O)N[C@H]1C(=O)N[C@@H](CC(N)=O)C(=O)N[C@H]2C(=O)N[C@H]3C(=O)N[C@H](C(=O)N[C@H](C(=O)O)c4cc(O)cc(O)c4-c4cc3ccc4O)[C@H](O)c3ccc(c(Cl)c3)Oc3cc2cc(c3O[C@@H]2O[C@H](CO)[C@@H](O)[C@H](O)[C@H]2O[C@H]2C[C@](C)(N)[C@H](O)[C@H](C)O2)Oc2ccc(cc2Cl)[C@H]1O [vancomycin, reference compound] was tested, and the “bacterial growth, agent alone” value [3] was “only slowed down growth”.
